We go through 2 compounds from US20210355421A1, “DEVICES AND METHODS FOR PRODUCTION OF CELL AGGREGATES” (priority 2007, published 2021).

Data set [1] has as its system hESC. Nature of the data set: forced aggregation of hESC with or without ROCK inhibitor Y-27632. It is filed as cell-based, human. The method, then:
• 1. […] The precise degree of pre-differentiation that is optimal will vary with the cell line in question, exact maintenance techniques, etc. If EB coherence is still insufficient after treatment as above, pre-differentiation can be started earlier (i.e the duration increased) or (if using BMPs), BMP concentration can be increased. […] Prepare low-adsorbance well plates: • a) dispense 40 μL (for 96-well plates) or 25 μL (for 384-well plates) of 5% Pluronic acid in PBS into the plates • b) incubate 30 minutes at room temperature • c) remove pluronic acid solution by pipetting or by inverted centrifugation in the device described and illustrated in FIG. 1 or 2 for 1 minute at 240×g • 3. Prepare a single-cell suspension by treating the hESC culture with TrypIE for 5 minutes, and washing the cells off with X-Vivo10 • 4. Count cells, spin down and re-suspend to 1 million cells/mL in X-Vivo or other medium of interest. Cells may all derive from a single culture, or cells from different sources may be combined. • 5. […] In the absence of both, no aggregates were formed (N.D.—size not determined). […]

The subject of data set [2] is hESC. Nature of the data set: aggregate formation from hESC cultured on Matrigel after BMP pre-differentiation. It is filed as cell-based, human. The note with it: 50 ng/mL BMP4 pre-differentiation, control population did not form aggregates.
Procedure: The precise degree of pre-differentiation that is optimal will vary with the cell line in question, exact maintenance techniques, etc. […] Prepare low-adsorbance well plates: • a) dispense 40 μL (for 96-well plates) or 25 μL (for 384-well plates) of 5% Pluronic acid in PBS into the plates • b) incubate 30 minutes at room temperature • c) remove pluronic acid solution by pipetting or by inverted centrifugation in the device described and illustrated in FIG. 1 or 2 for 1 minute at 240×g • 3. Prepare a single-cell suspension by treating the hESC culture with TrypIE for 5 minutes, and washing the cells off with X-Vivo10 • 4. Count cells, spin down and re-suspend to 1 million cells/mL in X-Vivo or other medium of interest. Cells may all derive from a single culture, or cells from different sources may be combined. • 5. […]

Entries after “also recorded” stand apart in the source; their conditions may differ.

Regarding `C[C@@H](N)[C@H]1CC[C@H](C(=O)Nc2ccncc2)CC1` [Y-27632], in the data set on hESC [1] (10 μM Y-27632, hESC cultured on Matrigel, 2,000 cells per well, without or with 48 hours pre-differentiation in serum-containing medium), the “aggregate size and symmetry” value is “substantially increased aggregate size and symmetry; also recorded: size and symmetry of aggregates are improved”. Also, the “SISO-aggregate formation / aggregate stability” value with hESC [1] (10 μM Y-27632 added to cell suspension immediately prior to dispensing, hESC on Matrigel in MEF-conditioned medium, without or with pre-differentiation) is listed as “sizeable aggregates resulted”.
As to “BMP4: bone morphogenetic protein used as growth factor for pre-differentiation”, the “stable aggregate formation after BMP4 pre-differentiation” value with hESC [2] is “Aggregates formed from the pre-differentiated population”.
